Calls of active or inactive are those of the source.
What was measured:
HCC366 = experiment: Cytotoxicity against human HCC366 cells assessed as reduction in cell viability incubated for 96 hrs by Cell-titer Glo reagent based assay; assay type: functional
A549 = experiment: Cytotoxicity against human A549 cells assessed as reduction in cell viability incubated for 96 hrs by Cell-titer Glo reagent based assay; assay type: functional
HCC44 = experiment: Cytotoxicity against human HCC44 cells assessed as reduction in cell viability incubated for 96 hrs by Cell-titer Glo reagent based assay; assay type: functional
Homo sapiens = species on record: Homo sapiens; experiment: Cytotoxicity against human HCC1171 cells assessed as reduction in cell viability incubated for 96 hrs by Cell-titer Glo reagent based assay; assay type: functional
Pseudomonas aeruginosa = experiment: Antibacterial activity against Pseudomonas aeruginosa assessed as zones of growth inhibition incubated for 24 hrs by […]; assay type: functional, organism-based
Bacillus subtilis = experiment: Antibacterial activity against Bacillus subtilis assessed as zones of growth inhibition incubated for 24 hrs by […]; assay type: functional, organism-based

C[C@H]1CC[C@@]2(C)C(=O)C=C(NC(=O)c3ccccc3)N12
inactive: Activity (HCC366) | Activity (A549) | Activity (HCC44) | Activity (Homo sapiens) | growth inhibition (GI) (Pseudomonas aeruginosa) | growth inhibition (GI) (Bacillus subtilis)

CC(C)=CC(=O)NC1=CC(=O)[C@@]2(O)CC[C@H](C)N12
inactive: Activity (HCC366) | Activity (A549) | Activity (HCC44) | Activity (Homo sapiens) | growth inhibition (GI) (Pseudomonas aeruginosa) | growth inhibition (GI) (Bacillus subtilis)

CC(C)=CC(=O)NC1=CC(=O)[C@]2(C)C=C[C@H](C)N12
inactive: Activity (HCC366) | Activity (A549) | Activity (HCC44) | Activity (Homo sapiens) | growth inhibition (GI) (Pseudomonas aeruginosa) | growth inhibition (GI) (Bacillus subtilis)

CC(C)/C=C/C(=O)NC1=CC(=O)[C@]2(C)CC[C@H](C)N12
inactive: Activity (HCC366) | Activity (A549) | Activity (HCC44) | Activity (Homo sapiens) | growth inhibition (GI) (Pseudomonas aeruginosa) | growth inhibition (GI) (Bacillus subtilis)

C/C=C(\C)C(=O)NC1=CC(=O)[C@]2(C)CC[C@H](C)N12
inactive: Activity (HCC366) | Activity (A549) | Activity (HCC44) | Activity (Homo sapiens) | growth inhibition (GI) (Pseudomonas aeruginosa) | growth inhibition (GI) (Bacillus subtilis)

CC(C)=CC(=O)NC1=CC(=O)[C@]2(C)[C@H](O)[C@@H](O)[C@H](C)N12
inactive: Activity (HCC366) | Activity (A549) | Activity (HCC44) | Activity (Homo sapiens) | growth inhibition (GI) (Pseudomonas aeruginosa) | growth inhibition (GI) (Bacillus subtilis)

CC(C)=Cc1nc(N2C(=O)C[C@H](O)[C@@H]2C)cc(=O)o1
inactive: Activity (HCC366) | Activity (A549) | Activity (HCC44) | Activity (Homo sapiens) | growth inhibition (GI) (Pseudomonas aeruginosa) | growth inhibition (GI) (Bacillus subtilis)

CC(C)=Cc1nc(N2C(=O)CC[C@@H]2C)cc(=O)o1
inactive: Activity (HCC366) | Activity (A549) | Activity (HCC44) | Activity (Homo sapiens) | growth inhibition (GI) (Pseudomonas aeruginosa) | growth inhibition (GI) (Bacillus subtilis)
